# How the values were obtained:
# EAAC1 mRNA = test: In situ hybridization of neuronal EAAC1 mRNA in caudal vlPAG; format: in vivo, rat
# TNF mRNA = test: qPCR of TNF mRNA in vlPAG; format: in vivo, rat; conditions: chronic morphine with or without XPro1595
# Description: (§1) Gene expression is reported as the ratio of the gene of interest to Gapdh, and are normalized to the Vehicle+Saline condition. Changes in mRNA between groups were assessed using an ANOVA on ranks (Kruskal-Wallis), and Mann Whitney U post-hoc comparisons (SPSS). Data are expressed as median; p<0.05 was considered significant.
# IL-6 mRNA = test: qPCR of IL-6 mRNA in vlPAG; format: in vivo, rat; conditions: chronic morphine with or without XPro1595
# Description: as §1
# IL-10 mRNA = test: qPCR of IL-10 mRNA in vlPAG; format: in vivo, rat; conditions: chronic morphine with or without XPro1595
# Description: as §1
# solTNF = target: T1, solTNF (Mus musculus, UniProt P06804); conditions: systemic delivery; cited from earlier work
# T1 construct: There are two active forms of TNF, soluble-TNF (solTNF) and transmembrane-TNF (tmTNF); host or cells: endogenous TNF of EAE animals
# T1 sequence (P06804 80-235 limits assumed): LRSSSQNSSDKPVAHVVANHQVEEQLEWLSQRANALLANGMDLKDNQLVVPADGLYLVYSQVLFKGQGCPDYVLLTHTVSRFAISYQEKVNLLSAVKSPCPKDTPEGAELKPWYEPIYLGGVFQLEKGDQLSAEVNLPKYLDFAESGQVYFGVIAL
# TNF = conditions: morphine tolerant animals; cited from earlier work
# Chain of TNF (P16599 80-235 limits assumed): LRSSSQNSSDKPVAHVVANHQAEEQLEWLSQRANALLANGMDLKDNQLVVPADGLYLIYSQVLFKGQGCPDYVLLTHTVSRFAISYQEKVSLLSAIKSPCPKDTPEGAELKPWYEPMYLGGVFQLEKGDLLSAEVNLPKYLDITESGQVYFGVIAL
# soluble TNF (solTNF) = target: T2, soluble TNF (solTNF) (Rattus norvegicus, UniProt P16599); format: in vivo; conditions: 24 and 72 hours after intra-PAG administration
# T2 construct: soluble TNF which is formed after cleavage of tmTNF by ADAM17/TNF-αlpha Converting Enzyme (TACE); from tissue; host or cells: living rat, ventrolateral periaqueductal gray (vlPAG) / CNS
# T2 sequence (P16599 80-235): as the sequence (P16599 80-235 limits assumed) above
# Description: Male Sprague Dawley rats (250-350 g; Charles River; MA) were pair-housed on a 12:12 hour light:dark cycle (lights on at 7:00 am) with ad libitum access to food and water. The Institutional Animal Care and Use Committee at Georgia State University approved all studies.
# Rats were implanted with bilateral cannula aimed at the ventrolateral PAG (vlPAG) and received bilateral infusions of lenti-DN-TNF or lenti-GFP while under surgical anesthesia.
compound,measurement,setting,value
CN1CC[C@]23c4c5ccc(O)c4O[C@H]2[C@@H](O)C=C[C@H]3[C@H]1C5 [morphine],vlPAG EAAC1 mRNA expression,EAAC1 mRNA; systemic morphine for 3 days,No significant effect
same,vlPAG TNF gene expression,TNF mRNA,not statistically significant
same,vlPAG IL-6 mRNA,IL-6 mRNA,No significant change
same,vlPAG IL-10 mRNA,IL-10 mRNA,No significant change
etanercept,outcome in EAE,solTNF,neither therapeutic nor neuroprotective
same,effect on acute morphine inhibition of tail flick reflex,TNF,restores the ability of morphine to acutely inhibit tail flick reflex
lipopolysaccharide [LPS],baseline paw withdrawal latencies,soluble TNF (solTNF),no effect
same,vlPAG EAAC1 mRNA,EAAC1 mRNA; chronic vlPAG microinfusions of LPS,did not alter
